{
  "source": "patent US5834492A",
  "about": "“Water soluble orally effective iron chelator” (Jacobus Pharmaceutical Co., priority 1997, dated 1998)",
  "key": {"[1]": {"assay": "Water / aqueous solubility at 25 °C", "type": "physicochemical"}, "[2]": {"assay": "Solubility in ethanol or acetonitrile", "type": "physicochemical", "protocol": "PIH has very limited solubility in water and ethanol, and in fact, to solubilize 28.6 grams of PIH would require 30,000 cc of absolute ethanol. Nevertheless, the aforesaid molar concentrations were used to produce a suspension to which was added the ethereal HCI solution.\nAs a result of applicant's work, this procedure raises even more questions of operability than the immediately preceding one, since the acetonitrile solubility of the precipitate obtained after treatment of an authentic sample of PIH with ethereal HCI, is virtually nil. Specifically, attempts to solubilize the product succeeded in dissolving only 40 ma of material per 500 cc of hot acetonitrile--a ratio of 1 gram per 12.5 liters of acetonitrile (a ratio of […]) and no precipitate was obtained after addition of dry ether--even upon cooling the solution. Applicants were unable to liberate any product from the recrystallization system disclosed in U.S. 2,810,725.\nThis cannot be accomplished since the solubility of PIH in ethanol is approximately 1 mg/mL and would require a volume of 30,000 cc for dissolution as described and not 500 cc.\nThere was utilized a suspension of 57.2 mg/cc (1.43 g, 5 mMol in 25 cc absolute ethanol) to which were added two equivalents (10 mmoles) of 4 N ethereal HCI (2.5 cc) and stirred for one hour. The light yellow starting material became a copious off-white suspension. This was filtered and dried to give 1.68 g of a solid with melting point 250°-252°C. (dec) with discoloration beginning at 240° C. An authentic sample of PIH dihydrochloride, synthesized according to Example 1 supra, melts at 255°-257° C."}, "[3]": {"assay": "Human studies of oral PIH: iron excretion, toxicity, palatability", "type": "in vivo", "conditions": "in the mouth", "text": "There has, heretofore been no convenient, safe and effective orally administered chelator that has been developed for clinical use."}, "[4]": {"conditions": "noted by Sah 1953; cited from earlier work"}, "[5]": {"conditions": "below pH 3; chromatographic investigations; cited from earlier work"}, "[6]": {"conditions": "continuous infusion in solution; rats; cited from earlier work"}, "[7]": {"conditions": "cited from earlier work"}, "[8]": {"conditions": "cited from earlier work", "remark": "listed apart in the source"}, "[9]": {"assay": "Stability/degradation in aqueous medium of given pH", "type": "physicochemical", "conditions": "for degraded at 3 h: aqueous medium, read-out: degradation after three hours"}, "[10]": {"assay": "Stability of the solid to light and anhydrous heat", "type": "physicochemical"}, "[11]": {"assay": "Iron complexation (chelation)", "conditions": "aqueous solutions in vitro and in vivo"}, "[12]": {"assay": "Biliary iron excretion in iron-overloaded rats after gavage, bile duct cannulated", "type": "in vivo, Male Sprague-Dawley rats", "conditions": "gavage 100 mg/kg, versus PIH equivalent dosage", "protocol": "Measurement of the bioefficiency of iron chelators have been carried out in rats using the methods of Brittenham supra and Park et al,(C. Park, B. R. Bacon, G. M. Brittenham and N. Tas. Lab Invest. 57:555-63 (1987).\nMale Sprague-Dawley rats weighing approximately 200 g were housed in cages and randomly assigned to three groups containing at least 6 animals. The groups received (i) one ml of saline alone administered by gavage (ii) 1 mL saline with PIH as the free base, 100 mg/kg body weight, added just prior to administration by gavage and (iii) 1 mL saline with PIHDH, 100 mg/kg body weight, added just prior to administration by gavage. The doses of chelators tested are chosen to provide direct comparisons with previous assay data. Animals receiving the chelators or saline by gavage receive doses 45 minutes prior to surgery. Animals are placed under anesthesia and the bile duct cannulated to permit continuous collection of bile during the assay time period. The bile is collected at half-hour intervals for 5 or 6 hours and the iron content determined spectrophotometrically, using bathophen-anthroline sulfonate for color development as published by Pippard et al, (M. J. Pippard, D. K. Johnson and C. A. Finch. Blood. 58:685-92 (1981)). […]"}, "[13]": {"assay": "Total daily iron excretion in iron overloaded patients (enteric granules or glycine-buffered capsules)", "conditions": "patients with iron overload"}, "[14]": {"conditions": "water, 25 °C (FIG. 16), read-out: water solubility"}},
  "note": "“And” between values parts separate entries of the source, which are not always exact repeats. Equal entries are not always repeated. “Also recorded” adds a separate entry of the source. Structures can show the parent of a compound that is named as a salt. Where two headings read alike, the source gives them in different places.",
  "data": [
    {"smiles": "Cc1ncc(CO)c(/C=N/NC(=O)c2ccncc2)c1O", "note": "[PIH, 3-hydroxy-5-hydroxy-methyl-2-methyl-4-pyridinylcarboxaldehyde 4' pyridinecarboxylic acid hydrazone]", "values": [
      {"measurement": "water solubility", "setting": "[1]; water, 25 °C (FIG. 16)", "result": 0.14, "unit": "mg/mL"},
      {"measurement": "solubility", "setting": "[1]; [14]", "result": 0.14, "unit": "mg/mL"},
      {"measurement": "volume of absolute ethanol required to dissolve 28.6 g PIH", "setting": "[2]; absolute ethanol", "result": "30,000 cc and 30.000 cc"},
      {"measurement": "solubility in ethanol", "setting": "[2]; ethanol", "result": "approximately 1 mg/mL"},
      {"measurement": "taste", "setting": "[3]", "result": "unpleasant taste"},
      {"measurement": "water solubility, in words (literature)", "setting": "[4]", "result": "very low water solubility"},
      {"measurement": "instability under acidic conditions", "setting": "[5]", "result": "dissolution below pH 3 can lead to decomposition"},
      {"measurement": "iron excretion compared to desferrioxamine", "setting": "[6]", "result": "quantitatively similar iron excretion"},
      {"measurement": "iron excretion compared with subcutaneously injected desferrioxamine", "setting": "[7]; oral PIH at three times the molar rates, preliminary human studies", "result": "less than half of that expected with subcutaneously injected desferrioxamine"},
      {"measurement": "toxicity at doses needed for sufficient iron excretion", "setting": "[7]; oral capsule, >60 mg/kg, people", "result": "toxicity characterized by elevated hepatic enzymes"},
      {"measurement": "oral dose needed to elicit sufficient iron excretion", "setting": "[7]; oral capsule, people", "result": "> 60", "unit": "mg/kg"},
      {"measurement": "oral efficacy / iron removal in humans", "setting": "[7]; oral, humans", "result": "poor oral efficacy; also recorded: inadequate levels of iron are removed in humans"},
      {"measurement": "palatability", "setting": "[7]; oral, phase I clinical trials", "result": "highly unpalatable with a lingering unpleasant taste and oral sensation"},
      {"measurement": "absorption after oral administration", "setting": "[8]", "result": "not fully absorbed in vivo after oral administration"},
      {"measurement": "PIH crystals in feces", "setting": "[8]; treated animals/subjects, oral", "result": "presence of PIH crystals in the feces of treated animals; also recorded: crystals actually visible in feces of treated subjects"}
    ]},
    {"smiles": "Cc1ncc(CO)c(C=NNC(=O)c2ccncc2)c1O", "note": "[PIHDH, 3-hydroxy-5-(hydroxy-methyl)-2-methyl-4-pyridinecarboxaldehyde-4' pyridinecarboxylic acid hydrazone dihydrochloride]", "values": [
      {"measurement": "water solubility relative to PIH (times more water soluble)", "setting": "[1]; PIHDH versus PIH base, dihydrochloride", "result": "450 times and > 450 times"},
      {"measurement": "solubility", "setting": "[1]; [14]", "result": 63, "unit": "mg/mL"},
      {"measurement": "water solubility, in words", "setting": "[1]; water, dihydrochloride", "result": "better water solubility than the free base and its related hydrated species"},
      {"measurement": "degraded at 3 h", "setting": "[9]; pH 1.29, 3 h", "result": 44.1, "unit": "%"},
      {"measurement": "degraded at 3 h", "setting": "[9]; pH 2.78, 3 h", "result": 17.7, "unit": "%"},
      {"measurement": "decomposition when buffered", "setting": "[9]; buffered above 3.0 to 7.0", "result": "virtually little to virtually no decomposition"},
      {"measurement": "degradation after three hours", "setting": "[9]; pH 6.8, 3 h", "result": "no degradation"},
      {"measurement": "stability of crystals", "setting": "[10]", "result": "stable to light and anhydrous heat"},
      {"measurement": "ability to complex iron", "setting": "[11]", "result": "preserves its ability to complex iron in aqueous solutions in vitro and in vivo"},
      {"measurement": "total biliary iron excretion relative to PIH (percent)", "setting": "[12]", "result": 250, "unit": "%"},
      {"measurement": "total biliary iron excretion relative to PIH (times greater)", "setting": "[12]", "result": 2.5, "unit": "times"},
      {"measurement": "absorption of enteric granules or buffered capsules", "setting": "[13]", "result": "adequately absorbed"}
    ]},
    {"smiles": "Cc1ncc(CO)c(C=NNC(=O)c2ccncc2)c1O", "note": "[Pyridoxal isonicotinoyl hydrazone isethionate]", "values": [
      {"measurement": "solubility", "setting": "[1]; 0.1 n hcl, read-out: solubility in 0.1N HCl", "result": 36, "unit": "mg/mL"},
      {"measurement": "solubility", "setting": "[1]; water, read-out: water solubility", "result": 2.7, "unit": "mg/mL"}
    ]},
    {"smiles": "Cc1ncc(CO)c(C=NNC(=O)c2ccncc2)c1O", "note": "[hydrochloride-1.5 hydrate of PIH, 3-hydroxy-5-(hydroxymethyl) -2-methyl-4-pyridinecarboxaldehyde-4' pyridin ecar-boxylic acid hydrazone monohydrochloride trihemihydrate]", "values": [
      {"measurement": "water solubility", "setting": "[1]; water, 25 °C (FIG. 16)", "result": 34, "unit": "mg/mL"},
      {"measurement": "water solubility, in words", "setting": "[1]; water, listed as monohydrochloride 1.5 hydrate", "result": "slower solubilization"}
    ]},
    {"smiles": "Cc1ncc(CO)c(C=NNC(=O)c2ccncc2)c1O", "note": "[product]", "values": [
      {"measurement": "solubility in acetonitrile, in words", "setting": "[2]; acetonitrile", "result": "virtually nil"},
      {"measurement": "solubility of product in acetonitrile", "setting": "[2]; acetonitrile", "result": "less than 0.1 mg/mL"},
      {"measurement": "amount of material dissolved per 500 cc hot acetonitrile", "setting": "[2]; per 500 cc hot acetonitrile", "result": 40, "unit": "ma"}
    ]}
  ]
}
